Experimental data published in patent US10610517B2, “Compositions and methods for treating neoplastic diseases” (Celgene International II Sàrl, priority 2004, dated 2020).
Where two headings read alike, the source gives them in different places.

Key:
[1] = system: MM.1S, MM.1R, RPMI-8226, Dox-40, OPM2 and U266 cells; assay: MTT cell viability of MM cell lines; format: cell-based, human; settings: 24 h, range over all six cell lines; FIG. 5A
Excerpt: Results are mean±S.D from three independent experiments (P<0.005; n=3 for all Cell lines).

[2] = system: Lymphocytes from five healthy donors; assay: MTT cytotoxicity on normal lymphocytes
Excerpt: Bortezomib therapy is associated with toxicity in patients. […] Results are the mean±SD of three independent experiments.

[3] = system: Chymotrypsin-like proteasome activity; format: cell-based, human; settings: data not shown
Excerpt: (§1) Whether the compound of formula (II) or Bortezomib alters proteasome activity in normal lymphocytes and skin fibroblasts was also examined.

RPMI 8226 MM cells = format: in vivo, beige-nude-xid (BNX) mice
[4] = system: normal CCD-27sk fibroblasts; assay: cells; format: cell-based, human
Excerpt: as §1

MM.1S MM cells = assay: VEGF-induced migration of MM cells; format: cell-based, human; settings: 7 or 10 nM; FIG. 8
Procedure: VEGF is elevated in the bone marrow microenvironment and triggers migration, growth, and angiogenesis in MM cells. See Podar, K., Tai, Y. T., Lin, B. K., Narsimhan, R. P., Sattler, M., Kijima, T., Salgia, R., Gupta, D., Chauhan, D. & Anderson, K. C. […] Thus, whether the compound of formula (II) (X=Cl) alters VEGF-induced migration of MM cells was evaluated. VEGF induced migration was examined in the presence or absence of the compound (7 or 10 nM). Cell migration was assayed as described previously in Podar, K., Tai, Y. T., Davies, F. E., Lentzsch, S., Sattler, M., Hideshima, T., Lin, B. K., Gupta, D., Shima, Y., Chauhan, D., Mitsiades, C., Raje, N., Richardson, P. & Anderson, K. C. […] These findings indicate that the compound may negatively regulate both homing of MM cells to the bone marrow and their egress into the peripheral blood.

[5] = system: purified (CD138-positive) patient MM cells; assay: DNA fragmentation apoptosis assay on purified patient MM cells
[6] = system: Mouse embryonic fibroblast (MEFs); assay: MTT viability of MEFs with wild-type or knock-out Bax; format: cell-based; settings: 48 h; FIG. 12F
Excerpt: Results are mean±SD of three independent experiments (P<0.05).

patient MM-derived BMSCs = assay: DNA fragmentation apoptosis assay on bone marrow stromal cells; format: cell-based, human; settings: 20 nM, 24 h, BMSCs Patient #1-5; FIG. 6
[7] = system: Bcl2-transfected MM.1S cells; assay: MTT viability of Bcl2-transfected MM.1S cells
Procedure: Bcl2 confers resistance to conventional therapies in cancer cells, including MM. […] Bcl2 can modestly attenuate Bortezomib-induced apoptosis. Thus, whether ectopic expression of Bcl2 in MM.1S cells affects responsiveness to the compound of formula (II) (X=Cl) was evaluated. MM.1S cells were stably transfected with Bcl2 construct and analyzed for alterations in cell viability using an MTT assay. […] Results are mean±SD of three independent experiments.
During apoptosis Bax neutralizes the antiapoptotic function of Bcl-2, thereby facilitating the cyto-c release and caspase-9 activation. Bcl-2 also confers drug resistance in cancer cells, including MM, and provides partial protection against Bortezomib-induced killing. Therefore, whether ectopic expression of Bcl-2 in MM.1S cells affects the ability of the compound of formula (II) or Bortezomib to trigger cytotoxicity and postmitochondrial apoptotic signaling in MM cells was evaluated.

[8] = target: proteasome β-5, β-2, β-1 subunits in MM.1S MM cells (Homo sapiens, UniProt P28072+P28074+Q99436); assay: Competition experiment with AdaY(125I)Ahx3L3VS in MM.1S cells; format: cell-based; settings: 7 nM
Procedure: Determination of whether the compound of formula II (X=Cl) affects the proteasome activity in multiple myeloma cells in vitro was made using a competition experiment with AdaY^125Iahx3L3VS. In this assay, sites that are not targeted by the compound of formula II (X=Cl) are labeled by AdaY(^125I)Ahx3L3VS and visualized by autoradiography, while sites that are targeted by the compound of formula II (X=Cl) can not be seen on the autoradiogram. […] 60 μg of protein extracts was incubated for 2 h with the iodinated proteasome inhibitor AdaY^125Iahx3L3VS at 37° C. Proteins were then denatured by boiling in reducing sample buffer and separated on a 12.5% SDS-PAGE gel, followed by autoradiography.

[9] = 0.25 or 0.5 mg/kg orally twice a week

CC12OC(=O)C1(C(O)C1C=CCCC1)NC(=O)C2CCCl (centres unmarked) [compound of formula (II) (X=Cl)]
IC50 [1]: 7 to 24 nM | viability of normal lymphocytes ([2]; 72 h, 0-20 nM (compound even at 20 nM; Bortezomib at 6-10 nM), FIG. 13): does not significantly decrease the survival of normal lymphocytes | effect on normal lymphocytes at the IC50 of patient MM cells ([2]; in words): no effect on normal lymphocytes | inhibition of Chymotrypsin-like proteasome activity ([3]; 20 nM): 99% | proteasome activity in CCD-27sk fibroblasts ([3]; treatment at the IC50): inhibited proteasome activity | MM tumor growth (RPMI 8226 MM cells; [9]): significantly inhibits MM tumor growth | survival (RPMI 8226 MM cells; [9]): prolongs survival | neurological behavioral changes (RPMI 8226 MM cells; after 12 weeks of treatment, oral): no neurological behavioral changes were observed | treated mice with no recurrence of tumor (RPMI 8226 MM cells; day 300, oral, FIG. 10C): 57% | tumor progression (RPMI 8226 MM cells; i.v. twice weekly (compound 0.15 mg/kg; Bortezomib 1.0 mg/kg), p<0.01): significantly reduced the tumor progression | survival (RPMI 8226 MM cells; i.v. twice weekly (compound 0.15 mg/kg; Bortezomib 1.0 mg/kg), p=0.0137): prolonged survival | tolerability and body weight (RPMI 8226 MM cells; oral 0.25 or 0.5 mg/kg, FIG. 10D): well tolerated by mice, without evidence of weight loss | treated mice with complete regression of tumors (RPMI 8226 MM cells; oral, twice a week): 70% | histologic analysis of the inoculation sites (RPMI 8226 MM cells; versus vehicle, FIG. 10E): disappearance of plasma cells | IC50 [4]: 317 nM | VEGF-induced migration (MM.1S MM cells): decreases VEGF-induced migration | apoptosis by DNA fragmentation assay ([5]; 10 nM, 24 h, nine relapsed MM patients, FIG. 5B): significant apoptosis | increase in apoptosis ([5]; CD138+ cells of two patients, 20 nM, 24 h, FIG. 6): 10-12 fold | IC50 for MM cells ([5]; stated in words): within the nanomolar concentration | cell viability in Bax (WT) and Bax (knock-out) MEFs [6]: decreases viability in both Bax (WT) and Bax (knock-out) | apoptosis by DNA fragmentation assay (patient MM-derived BMSCs): does not induce apoptosis | increased survival of Bcl-2 transfectants ([7]; Bcl-2- versus vector-transfected, FIG. 14A): 11% | viability ([7]; Bcl-2-transfected cells, FIG. 14A): 50%±2.6 | less cell death in Bcl2-transfected cells compared to empty vector-transfected MM.1S cells ([7]; FIG. 9): 15±1.1% | effect of Bcl-2 overexpression on induced caspase-9 cleavage ([7]; FIG. 14B): minimally affected | cell viability of Bcl2-transfected MM.1S cells ([7]; dose-dependent, FIG. 9): significantly decreases cell viability | viability ([7]; vector-transfected cells, FIG. 14A): 39%±1.5 | labeling of β-5 subunit by AdaY(125I)Ahx3L3VS ([8]; 30 mins to 6 h, FIG. 3): markedly less labeled | labeling of β-2 and β-1 subunits by AdaY(125I)Ahx3L3VS ([8]; 6 h, data not shown): decreased the labeling of the β-2 subunits (tryptic-activity) and the β-1 subunits (caspase-like activity)
